According to patent US20070077308A1, “CONTINUOUS MULTI-MICROENCAPSULATION PROCESS FOR IMPROVING THE STABILITY AND STORAGE LIFE OF BIOLOGICALLY ACTIVE INGREDIENTS” (priority 2003, published 2007):

Experiment: Storage stability of microencapsulated fish oil fatty acids
Assay type: physicochemical
Excerpt: We have performed tests of storage ability while remaining the active ingredients unchanged.

| Compound | % in the oil (d = 0) [% in the oil] | % in the oil (d = 30, 4° C.) [% in the oil] | % in the oil (d = 30, 25° C.) [% in the oil] | % in the oil (d = 30, 45° C.) [% in the oil] | % in the oil (d = 60, 45° C.) [% in the oil] |
| --- | --- | --- | --- | --- | --- |
| CC/C=C\C/C=C\C/C=C\CCCCCCCC(=O)O [alpha-linolenic acid] | 2.7 | 2.5 | 2.6 | 2.5 | 2.4 |
| CCCCCCCCCCCCCCCCCC(=O)O [Stearic acid] | 1.4 | 1.4 | 1.4 | 1.3 | 1.3 |
| CCCCCCCCCCCCCCCC(=O)O [Palmitic acid] | 1.1 | 1.1 | 1.1 | 1.1 | 1.1 |

Further lines, results first:

| % in the oil (d = 0) [% in the oil] | % in the oil (d = 30, 4° C.) [% in the oil] | % in the oil (d = 30, 25° C.) [% in the oil] | % in the oil (d = 30, 45° C.) [% in the oil] | % in the oil (d = 60, 45° C.) [% in the oil] | Compound |
| --- | --- | --- | --- | --- | --- |
| 2.9 | 2.7 | 2.6 | 2.6 | 2.4 | CCCCCCCC/C=C\CCCCCCCC(=O)O [oleic acid] |
| 2.8 | 2.6 | 2.6 | 2.5 | 2.5 | CCCCC/C=C\C/C=C\CCCCCCCC(=O)O [linoleic acid] |
